Source: patent US20060258754A1, “Method of treating endothelial dysfunction, oxidative stress and related diseases” (priority 2004, published 2006)
“Also recorded” adds a separate entry of the source. Each block holds one compound with its values, some of them ahead of it.

Legend:
[1] = human PCOS; cited from earlier work
[2] = test system: renal vascular bed of perfused kidneys; assay: Acute perfusion of diabetic rabbit kidneys: acetylcholine-induced decrease in perfusion pressure; set-up: species or system alloxan-diabetic rabbits; details: 3-week diabetic rabbit kidneys; for restoration of vasorelaxant effect of acetylcholine, DCI versus db-DCI: repeated perfusion experiment, 1 μM; for restoration of endothelial function (acetylcholine induced decrease in perfusion pressure): perfusion with 1 μM, first experiment
Protocol: (§1) Male California rabbits, weighing 2-2.5 kg, were provided by the vivarium of the Biomedicine Institute-UFC. Diabetes was induced by intraperitoneal injection of alloxan (150 mg/kg) and only animals with plasma glucose concentration above 200 mg/dl were included in the study. Age-matched euglycemic rabbits were used as controls.
(§2) Kidneys and aortic rings are harvested from diabetic rabbits after 3 weeks of alloxan injection. They are perfused with KHS containing 1 μM D-chiro-inositol, pinitol, dibutyryl D-chiro-inositol, myo-inositol or saline for 1 hour. Dose response curves for acetylcholine are then performed following prior phenylephrine vasoconstriction as described. At least 6 separate experiments will be performed each in duplicate.
Kidneys and aortic rings were harvested from diabetic rabbits after 3 weeks of alloxan injection. The animals were sacrificed under sodium pentobarbital anesthesia (Hypnol®, 150-200 mg/kg). […]. Rabbit kidneys were obtained from male New Zealand rabbits (1-1.5 kg) after cannulation of the renal artery in situ. [Thereafter the organ is rapidly perfused with warm KHS at 37° C., pH 7.4 and gassed with 95% O2 in 5% CO2 in an open system with a constant flow adjusted to yield 1 mL/g/min and maintained by a peristaltic pump. The alterations in perfusion pressure are continuously recorded in a four-channel polygraph (Narco Biosystems, Houston, Tex., USA) by means of a pressure transducer (P23 Gould Stratham, Oxnard, Calif., USA). After a 30 minute equilibration period, phenylephrine (1 to 5 μM) is infused by means of an infusion pump at a constant rate (0.1 ml/min) in order to achieve a stable perfusion pressure (100-120 mm Hg). Concentration-response curves are performed to the vasodilators, i.e. acetylcholine (Ach; 10^-9 to 10^-3 M). Drugs are injected as a 50 μL bolus, previously shown not to effect perfusion pressure in an arm side just above the cannula in the renal artery.] Following penectomy, the corpus cavernosum was dissected in Krebs solution and cleared of the tunica albuginea and surrounding tissues. Strips (2 cm) were mounted vertically in isometric baths (5 mL) in Krebs-Henseleit solution (37° C., pH 7.4 gassed with 95% O2 in 5% CO2) enriched with indomethecin (10 μM) and guanethedine (10 μM) in order to avoid prostanoid or neuronal norandrenergic interaction. After a 60 minute period for stabilization, tissues were precontracted with 10 μM phenylephrine in order to increase the basal tonus. Thereafter, frequency response curves to transmural electrical field stimulations (EFS—square wave pulses: 10 s train; 20 V, 0.5 ms, 2-16 Hz) were performed until two stable reproducible curves were attained. […]

[3] = several publications; cited from earlier work
[4] = test system: ROS generated by xanthine/xanthine oxidase; assay: Superoxide assay in vitro: xanthine/xanthine oxidase, NBT reduction; assay type: biochemical; details: low micromolar concentrations, FIG. 10
Protocol: Superoxide radicals were generated by the reaction of xanthine (1 mM) and xanthine oxidase ([…]) in air-saturated potassium phosphate buffer (pH 7.8 at 25° C.). Superoxide anions were detected by nitroblue tetrazolium (NBT—50 μM) which undergoes reduction by O2-. to its formazan. The rate of reduction was monitored spectrophotometrically at 560 nm with an Ultrospec 1000 (Pharmacia Biotech, Cambridge, England). SOD-1, by scavanging O2-. Diminishes the rate of reduction of NBT. The volume was fixed at 2 mL. Each experiment was run in duplicate.

diabetic aortic rings = assay: NO-induced relaxation in diabetic aortic rings contracted with phenylephrine; details: 0.1 μM phenylephrine, inositol 10 μM, 1 hour, FIG. 14
Protocol: (§3) NO action was investigated in aortic rings and RbCC. […] The data in FIGS. 14 are expressed as mean±SEM of 5 experimental units. * p<0.05, ANOVA followed by Tukey-Kramer, diab (C) vs. Inositol treated. # p<0.05, ANOVA followed by Tukey-Kramer, Eugly vs. Inositol treated. In FIG. 14, Veh=vehicle; C=diabetic control; Diab=diabetic control; Eugly=euglycemic tissue. Relaxation was restored toward or to normal by incubation with inositols.

[5] = Blood glucose and serum triglycerides after chronic administration in alloxan diabetic rats; assay type: in vivo, alloxan induced diabetic rats; details: 20 mg/kg 2× daily for 4 weeks
Text: The use of DCI and its derivative for the treatment of a variety of metabolic disorders, more specifically those that are related to insulin resistance have been the subject matter of patents and publications. The treatment of insulin resistance in humans by the administration of DCI was the subject matter of U.S. Pat. No. 5,124,360. Since DCI is found in the food chain it has a safety profile that warrants its use as a nutritional supplement. A method of treating a cluster of diseases with elevated blood sugar by the administration of a dietary supplement of DCI was the subject of U.S. Pat. No. 5,428,066.
Male Wistar rats, weighing between 230-250 g, fed regular chow, with free access to water were separated in four groups (n=10/each). The first two groups, termed normoglycemic, were treated with saline (0.1 mL/100 g/12 h) by the oral route (intragastric gavage) or untreated for four weeks. The second two groups, hyperglycemic, were treated with saline (0.1 mL/100 g/12 h) or treated with D-chiro-inositol (20 mg/kg/12 h) under the same protocol. […] Diabetes was induced by a single intravenous injection of 45 mg/kg alloxan as described by Sannomiya et al., 1997 ( ). Diabetes was diagnosed 96 h after injection by blood glucose assay >200 mg/dL. […]

penile corpus cavernosus = assay: Rabbit penile corpus cavernosus: relaxation to electrical field stimulation after 60 min incubation; set-up: species or system low dose alloxan-diabetic rabbit; details: 1 μM; for restoration of vasorelaxant effect of electrical stimulation of the pudendal nerve: EFS 2-16 Hz, FIG. 8
Protocol: as §1
Kidneys and aortic rings were harvested from diabetic rabbits after 3 weeks of alloxan injection. The animals were sacrificed under sodium pentobarbital anesthesia (Hypnol®, 150-200 mg/kg). […]. Rabbit kidneys were obtained from male New Zealand rabbits (1-1.5 kg) after cannulation of the renal artery in situ. [Thereafter the organ is rapidly perfused with warm KHS at 37° C., pH 7.4 and gassed with 95% O2 in 5% CO2 in an open system with a constant flow adjusted to yield 1 mL/g/min and maintained by a peristaltic pump. The alterations in perfusion pressure are continuously recorded in a four-channel polygraph (Narco Biosystems, Houston, Tex., USA) by means of a pressure transducer (P23 Gould Stratham, Oxnard, Calif., USA). After a 30 minute equilibration period, phenylephrine (1 to 5 μM) is infused by means of an infusion pump at a constant rate (0.1 ml/min) in order to achieve a stable perfusion pressure (100-120 mm Hg). Concentration-response curves are performed to the vasodilators, i.e. acetylcholine (Ach; 10^-9 to 10^-3 M). Drugs are injected as a 50 μL bolus, previously shown not to effect perfusion pressure in an arm side just above the cannula in the renal artery.] Following penectomy, the corpus cavernosum was dissected in Krebs solution and cleared of the tunica albuginea and surrounding tissues. Strips (2 cm) were mounted vertically in isometric baths (5 mL) in Krebs-Henseleit solution (37° C., pH 7.4 gassed with 95% O2 in 5% CO2) enriched with indomethecin (10 μM) and guanethedine (10 μM) in order to avoid prostanoid or neuronal norandrenergic interaction. After a 60 minute period for stabilization, tissues were precontracted with 10 μM phenylephrine in order to increase the basal tonus. Thereafter, frequency response curves to transmural electrical field stimulations (EFS—square wave pulses: 10 s train; 20 V, 0.5 ms, 2-16 Hz) were performed until two stable reproducible curves were attained. Then, frequency response curves were repeated after 60 min incubation with saline or 1 μM pinitol, DCI or db-DCI in the alloxan-diabetic rabbits. They are perfused with KHS containing 1 μM D-chiro-inositol, pinitol, dibutyryl D-chiro-inositol, myo-inositol or saline for 60 min. Dose response curves for acetylcholine are then performed following prior phenylephrine vasoconstriction as described. At least 6 separate experiments were performed each in duplicate.

aortic rings = assay: Acute incubation of diabetic rabbit aortic rings: acetylcholine relaxation; set-up: species or system alloxan-diabetic rabbits; details: acute incubation 1 μM, medium and higher concentrations of acetyl choline, FIG. 7
Protocol: as §1, §2
Kidneys and aortic rings were harvested from diabetic rabbits after 3 weeks of alloxan injection. The animals were sacrificed under sodium pentobarbital anesthesia (Hypnol®, 150-200 mg/kg). […]. Rabbit kidneys were obtained from male New Zealand rabbits (1-1.5 kg) after cannulation of the renal artery in situ. […] The alterations in perfusion pressure are continuously recorded in a four-channel polygraph (Narco Biosystems, Houston, Tex., USA) by means of a pressure transducer (P23 Gould Stratham, Oxnard, Calif., USA). […]

diabetic RbCC = assay: Relaxant response of diabetic RbCC to NO and Ach after in vitro inositol addition; details: in vitro inositol addition (one hour)
Protocol: as §3

[6] = listed as dibutyryl D-chiro-inositol

reduction of ROS generated by xanthine/xanthine oxidase ([4]; listed as D-chiro-inositol): equally effective
Structure (SMILES): OC1C(O)C(O)C(O)C(O)C1O [DCI, D-chiro-inositol]
ovulation, glucose tolerance and metabolic balance in PCOS [1]: effective in human PCOS in restoring ovulation, glucose tolerance and metabolic balance
restoration of vasorelaxant effect of acetylcholine, DCI versus db-DCI [2]: partially restored
hyperglycemia, triglyceridemia and glucose disposal [3]: effective decrease of hyperglycemia, triglyceridemia and enhanced glucose disposal
reduction of ROS generated by xanthine/xanthine oxidase [4]: reduced ROS in a low micromolar concentration dependant manner
relaxation to added NO (diabetic aortic rings): restored relaxation to normal
blood glucose [5]: decreased
serum triglycerides [5]: decreased
restoration of vasorelaxant effect of electrical stimulation of the pudendal nerve (penile corpus cavernosus): restoration of vasorelaxant effect

Structure (SMILES): CCCC(=O)O[C@@H]1[C@@H](O)[C@@H](O)[C@H](O)[C@H](O)[C@H]1OC(=O)CCC [dbDCI, 3,4-dibutyryl-D-chiroinositol]
restoring vasorelaxant effect in aortic rings (aortic rings): more effective than myoinositol
restoring vasorelaxant effect in aortic rings (aortic rings; [6]): clearly more effective than myo-inositol
restoration of endothelial function (acetylcholine induced decrease in perfusion pressure) ([2]; listed as db-DCI): completely restored endothelial function
restoration of endothelial function (acetylcholine induced decrease in perfusion pressure) [2, 6]: restored to normal
restoration of vasorelaxant effect of acetylcholine, DCI versus db-DCI [2]: partially restored
reduction of ROS generated by xanthine/xanthine oxidase [4]: reduced ROS in a low micromolar concentration dependant manner; also recorded: statistically more effective than the other 3 inositols
reduction of ROS generated by xanthine/xanthine oxidase [4, 6]: statistically more effective than the other 3 inositols
relaxation to added NO (diabetic aortic rings): restored relaxation to normal
restoration of vasorelaxant effect of electrical stimulation of the pudendal nerve (penile corpus cavernosus): restoration of vasorelaxant effect; also recorded: greatest effect at all levels of electrical stimulation
restoration of vasorelaxant effect at EFS of 4 Hz (penile corpus cavernosus; EFS 4 Hz): Almost complete restoration
relaxant response to graded concentrations of NO and to Ach (diabetic RbCC): more effective than the other three inositols
